Test results taken from US6737383B1, “Herbicidal oxadiazolidines” (priority 1999, dated 2004).

Key:
[1] = system: rice; assay: Test B flood test rice; format: in vivo, Oryza sativa
Procedure, shortened: (§1)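 Flood test on plants grown to the 2-leaf stage; treated plants kept in greenhouse twelve to sixteen days, then visually rated against controls on a 0 (no effect) to 10 (complete control) scale.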

[2] = system: wheat; assay: Test B pre/postemergence wheat; format: in vivo, Triticum aestivum
Procedure, shortened: (§2)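 Test chemicals in a non-phytotoxic solvent mixture with surfactant were sprayed preemergence onto planted seeds and postemergence onto plants 2 to 18 cm tall (1- to 4-leaf stage). After twelve to sixteen days in a greenhouse, injury was visually rated against untreated controls from 0 (no effect) to 10 (complete control).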

[3] = system: surinam grass; assay: Test B pre/postemergence surinam grass; format: in vivo, Brachiaria decumbens
Procedure, shortened: as §2

[4] = system: cocklebur; assay: Test B pre/postemergence cocklebur; format: in vivo, Xanthium strumarium
Procedure, shortened: as §2

[5] = system: giant foxtail; assay: Test B pre/postemergence giant foxtail; format: in vivo, Setaria faberii
Procedure, shortened: as §2

[6] = system: bedstraw; assay: Test B pre/postemergence bedstraw; format: in vivo, Galium aparine; details: Postemergence
Procedure, shortened: as §2

[7] = system: duck salad; assay: Test B flood test duck salad; format: in vivo, Heteranthera limosa
Procedure, shortened: as §1

[8] = system: wild oat; assay: Test B pre/postemergence wild oat; format: in vivo, Avena fatua
Procedure, shortened: as §2

[9] = system: crabgrass; assay: Test B pre/postemergence crabgrass; format: in vivo, Digitaria sanguinalis
Procedure, shortened: as §2

[10] = system: purple nutsedge; assay: Test B pre/postemergence purple nutsedge; format: in vivo, Cyperus rotundus
Procedure, shortened: as §2

[11] = system: blackgrass; assay: Test B pre/postemergence blackgrass; format: in vivo, Alopecurus myosuroides
Procedure, shortened: as §2

[12] = system: sugar beet; assay: Test B pre/postemergence sugar beet; format: in vivo, Beta vulgaris
Procedure, shortened: as §2

[13] = system: corn; assay: Test B pre/postemergence corn; format: in vivo, Zea mays
Procedure, shortened: as §2

[14] = system: soybean; assay: Test B pre/postemergence soybean; format: in vivo, Glycine max
Procedure, shortened: as §2

[15] = system: velvetleaf; assay: Test B pre/postemergence velvetleaf; format: in vivo, Abutilon theophrasti
Procedure, shortened: as §2

[16] = system: pigweed; assay: Test B pre/postemergence pigweed; format: in vivo, Amaranthus retroflexus
Procedure, shortened: as §2

[17] = Rate 62 g/ha, flood test species, Pre-emergence, visual evaluation after twelve to sixteen days
[18] = Rate 125 g/ha, under heading Pre-emergence, flood test species, visual evaluation after twelve to sixteen days
[19] = Rate 250 g/ha, Pre-emergence (flood test species), scale 0 to 10, 0 is no effect, 10 is complete control
[20] = Rate 500 g/ha, Pre-emergence section of Table B, 0 to 10 scale (0 no effect, 10 complete control)
[21] = Postemergence, Rate 62 g/ha, scale 0 to 10, 0 is no effect, 10 is complete control
[22] = Postemergence, Rate 125 g/ha, scale of 0 to 10 where 0 is no effect and 10 is complete control
[23] = Postemergence, Rate 250 g/ha, scale of 0 to 10, 0 is no effect, 10 is complete control
[24] = Preemergence, Rate 62 g/ha, scale 0 to 10 (0 no effect, 10 complete control)
[25] = Preemergence, Rate 125 g/ha, scale of 0 to 10 where 0 is no effect and 10 is complete control
[26] = Preemergence, Rate 250 g/ha, scale 0 to 10 (0 no effect, 10 complete control)
[27] = Preemergence, Rate 500 g/ha, scale of 0 to 10 where 0 is no effect and 10 is complete control
[28] = Postemergence, Rate 500 g/ha, scale of 0 to 10 where 0 is no effect and 10 is complete control

SMILES: CCOC(Cn1c(=O)on(C(=O)N(c2ccc(Cl)cc2)C(C)C)c1=O)OCC [Compound 633]
- Plant response rating, Rice (0 to 10 scale, 0 is no effect, 10 is complete control) [1, 17]: 0
- Rice plant response rating (0 to 10 scale, 0 is no effect, 10 is complete control) [1, 18]: 0
- Rice plant response rating [1, 19]: 0
- Rice plant response rating [1, 20]: 0
- Plant response rating, Wheat [2, 21]: 0
- Plant response rating, Wheat [2, 22]: 0
- Wheat plant response rating [2, 23]: 0
- Wheat plant response rating [2, 24]: 0
- Wheat plant response rating [2, 25]: 0
- Plant response rating, Wheat [2, 26]: 0
- Plant response rating, Wheat [2, 27]: 0
- Plant response rating, B. signalgrass [3, 21]: 0
- Plant response rating, B. signalgrass [3, 22]: 0
- B. signalgrass plant response rating [3, 23]: 0
- Plant response rating, B. signalgrass [3, 28]: 5
- B. signalgrass plant response rating [3, 24]: 0
- B. signalgrass plant response rating [3, 25]: 3
- Plant response rating, B. signalgrass [3, 26]: 6
- Plant response rating, B. signalgrass [3, 27]: 6
- Plant response rating, Cocklebur [4, 21]: 0
- Plant response rating, Cocklebur [4, 22]: 0
- Cocklebur plant response rating [4, 23]: 0
- Plant response rating, Cocklebur [4, 28]: 0
- Cocklebur plant response rating [4, 24]: 0
- Cocklebur plant response rating [4, 25]: 0
- Plant response rating, Cocklebur [4, 26]: 0
- Plant response rating, Cocklebur [4, 27]: 0
- Plant response rating, Giant foxtail [5, 21]: 0
- Plant response rating, Giant foxtail [5, 22]: 0
- Giant foxtail plant response rating [5, 23]: 3
- Plant response rating, Giant foxtail [5, 28]: 8
- Giant foxtail plant response rating [5, 24]: 6
- Giant foxtail plant response rating [5, 25]: 9
- Plant response rating, Giant foxtail [5, 26]: 10
- Plant response rating, Giant foxtail [5, 27]: 10
- Plant response rating, Bedstraw ([6]; Rate 62 g/ha, scale 0 to 10, 0 is no effect, 10 is complete control): 0
- Plant response rating, Bedstraw ([6]; Rate 125 g/ha, scale of 0 to 10 where 0 is no effect and 10 is complete control): 0
- Bedstraw plant response rating ([6]; Rate 250 g/ha, scale of 0 to 10, 0 is no effect, 10 is complete control): 0
- Plant response rating, Ducksalad (0 to 10 scale, 0 is no effect, 10 is complete control) [7, 17]: 0
- Ducksalad plant response rating (0 to 10 scale, 0 is no effect, 10 is complete control) [7, 18]: 0
- Ducksalad plant response rating [7, 19]: 0
- Ducksalad plant response rating [7, 20]: 0
- Plant response rating, Wild oats [8, 21]: 0
- Plant response rating, Wild oats [8, 22]: 0
- Wild oats plant response rating [8, 23]: 0
- Wild oats plant response rating [8, 24]: 0
- Wild oats plant response rating [8, 25]: 2
- Plant response rating, Wild oats [8, 26]: 3
- Plant response rating, Wild oats [8, 27]: 5
- Plant response rating, Crabgrass [9, 21]: 0
- Plant response rating, Crabgrass [9, 22]: 0
- Crabgrass plant response rating [9, 23]: 3
- Plant response rating, Crabgrass [9, 28]: 9
- Crabgrass plant response rating [9, 24]: 5
- Crabgrass plant response rating [9, 25]: 8
- Plant response rating, Crabgrass [9, 26]: 9
- Plant response rating, Crabgrass [9, 27]: 9
- Plant response rating, Nutsedge [10, 21]: 0
- Plant response rating, Nutsedge [10, 22]: 0
- Nutsedge plant response rating [10, 23]: 0
- Plant response rating, Nutsedge [10, 28]: 0
- Nutsedge plant response rating [10, 24]: 0
- Nutsedge plant response rating [10, 25]: 0
- Plant response rating, Nutsedge [10, 26]: 0
- Plant response rating, Nutsedge [10, 27]: 0
- Plant response rating, Blackgrass [11, 21]: 0
- Plant response rating, Blackgrass [11, 22]: 0
- Blackgrass plant response rating [11, 23]: 4
- Plant response rating, Blackgrass [11, 28]: 8
- Blackgrass plant response rating [11, 24]: 0
- Blackgrass plant response rating [11, 25]: 3
- Plant response rating, Blackgrass [11, 26]: 5
- Plant response rating, Blackgrass [11, 27]: 7
- Plant response rating, Sugarbeets [12, 21]: 0
- Plant response rating, Sugarbeets [12, 22]: 0
- Sugarbeets plant response rating [12, 23]: 0
- Sugarbeets plant response rating [12, 24]: 0
- Sugarbeets plant response rating [12, 25]: 0
- Plant response rating, Sugarbeets [12, 26]: 0
- Plant response rating, Sugarbeets [12, 27]: 0
- Plant response rating, Corn [13, 21]: 0
- Plant response rating, Corn [13, 22]: 0
- Corn plant response rating [13, 23]: 0
- Plant response rating, Corn [13, 28]: 0
- Corn plant response rating [13, 24]: 0
- Corn plant response rating [13, 25]: 0
- Plant response rating, Corn [13, 26]: 0
- Plant response rating, Corn [13, 27]: 2
- Plant response rating, Soybean [14, 21]: 2
- Plant response rating, Soybean [14, 22]: 2
- Soybean plant response rating [14, 23]: 2
- Soybean plant response rating [14, 24]: 0
- Soybean plant response rating [14, 25]: 0
- Plant response rating, Soybean [14, 26]: 0
- Plant response rating, Soybean [14, 27]: 0
- Plant response rating, Velvetleaf [15, 21]: 0
- Plant response rating, Velvetleaf [15, 22]: 0
- Velvetleaf plant response rating [15, 23]: 0
- Velvetleaf plant response rating [15, 24]: 0
- Velvetleaf plant response rating [15, 25]: 0
- Plant response rating, Velvetleaf [15, 26]: 0
- Plant response rating, Velvetleaf [15, 27]: 0
- Plant response rating, Redroot pigweed [16, 21]: 0
- Plant response rating, Redroot pigweed [16, 22]: 0
- Redroot pigweed plant response rating [16, 23]: 1
- Redroot pigweed plant response rating [16, 24]: 0
- Redroot pigweed plant response rating [16, 25]: 0
- Plant response rating, Redroot pigweed [16, 26]: 2
- Plant response rating, Redroot pigweed [16, 27]: 4
